Read-outs that look alike come from different tables or passages of the source.
Assays:
[1] = molecular target: T1, CatB (Homo sapiens, UniProt P07858); assay: CatB single point enzyme activity assay (residual activity); conditions: read-out: RA
Protocol: (§1) These fragments were measured in single point enzyme activity assays at 100 μM concentration against MurA and CatB.

[2] = molecular target: T2, MurA (Escherichia coli, UniProt P0A749); conditions: cited from earlier work; for MurA RA (%): residual activity at 100 μM, single point
[3] = molecular target: T1, CatB; design: method as in PMID 30321804; conditions: cited from earlier work; for CatB RA (%): residual activity at 100 μM, single point
[4] = molecular target: T3, Recombinant human microsomal MAO-A (Homo sapiens, UniProt P21397); assay: MAO-A activity assay (fluorimetric, Amplex Red, p-tyramine); format: biochemical; conditions: for RA: MAO-A residual activity, active if lower than 60%; for MAO-A inhibition (experimental): MAO-A inhibitory assay
T3 construct: purchased Sigma Aldrich; host or cells: baculovirus infected insect cells (BTI-TN-5B1-4)
T3 sequence (P21397 1-527): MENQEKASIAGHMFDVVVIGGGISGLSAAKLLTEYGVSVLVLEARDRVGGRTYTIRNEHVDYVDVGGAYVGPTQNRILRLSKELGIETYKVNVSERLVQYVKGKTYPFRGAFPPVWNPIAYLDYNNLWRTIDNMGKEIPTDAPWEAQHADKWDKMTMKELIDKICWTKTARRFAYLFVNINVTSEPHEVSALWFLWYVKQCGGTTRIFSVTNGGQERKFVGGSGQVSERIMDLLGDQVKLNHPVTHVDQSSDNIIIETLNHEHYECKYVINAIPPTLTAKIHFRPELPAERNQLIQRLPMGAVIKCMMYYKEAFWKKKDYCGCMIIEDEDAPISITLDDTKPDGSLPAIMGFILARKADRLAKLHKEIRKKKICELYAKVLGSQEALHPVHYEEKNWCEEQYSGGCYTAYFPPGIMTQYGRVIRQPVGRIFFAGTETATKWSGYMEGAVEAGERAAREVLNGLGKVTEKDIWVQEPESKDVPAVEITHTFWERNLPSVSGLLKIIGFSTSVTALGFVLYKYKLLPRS
Protocol: The effects of the test compounds on MAO-A were investigated using a fluorimetric assay, following a previously described methodology. The inhibitory activity of the compounds was evaluated by their effects on the production of hydrogen peroxide (H2O2) from p-tyramine. The production of H2O2 was detected using Amplex Red reagent in the presence of horseradish peroxidase, where a highly sensitive fluorescent product, resorufin, is produced at stoichiometric amounts. Recombinant human microsomal MAO-A enzyme expressed in baculovirus infected insect cells (BTI-TN-5B1-4), horse-radish peroxidase (type II, lyophilized powder), and p-tyramine hydrochloride were obtained from Sigma Aldrich. 10-Acetyl-3,7-dihydroxyphenoxazine (Amplex Red reagent) was synthesized as described in the literature.
Briefly, 100 µL 50 mM sodium phosphate buffer (pH 7.4, 0.05% Triton X-114) containing the compounds and MAO-A were incubated for 30 min at 37 °C in a flat-bottomed black 96-well microplate, and placed in a dark microplate reader chamber. After the pre-incubation, the reaction was started by adding the final concentrations of 200 µM Amplex Red reagent, 2 U/mL horseradish peroxidase, and 1 mM p-tyramine (final volume, 200 µL). The production of resorufin was quantified based on the fluorescence generated (λex = 530 nm, λem = 590 nm) at 37 °C over a period of 30 min, during which time the fluorescence increased linearly. For control experiments, DMSO was used instead of the appropriate dilutions of the compounds in DMSO. To determine the blank value (b), phosphate-buffered solution replaced the enzyme solution. The initial velocities were calculated from the trends obtained, with each measurement carried out in duplicate. The specific fluorescence emission to obtain the final result was calculated after subtraction of the blank activity (b).

[5] = molecular target: T2, MurA; assay: biochemical; conditions: read-out: RA
Protocol: as §1

[6] = cited from earlier work
[7] = Kinetic measurement of adduct formation with L-glutathione (GSH) by HPLC–MS; format: physicochemical; design: unit not given here
Protocol: Electrophilic fragments tested against MurA, CatB and MAO-A (25–53, structures shown in Supporting Figure S2 and SMILES provided in Supporting Table S1) represent eight different warhead chemotypes reacting via two reaction mechanisms: Michael-type nucleophilic addition and nucleophilic substitution. The intrinsic thiol reactivities (see Table 1) were determined by kinetic measurement of adduct formation with L-glutathione (GSH), a widely used cysteine surrogate, by an HPLC–MS methodology, as described in the referred study.

[8] = half-life of adduct formation with L-glutathione
[9] = < 60% residual activity at 100 μM considered active

T2 sequence (P0A749 whole entry): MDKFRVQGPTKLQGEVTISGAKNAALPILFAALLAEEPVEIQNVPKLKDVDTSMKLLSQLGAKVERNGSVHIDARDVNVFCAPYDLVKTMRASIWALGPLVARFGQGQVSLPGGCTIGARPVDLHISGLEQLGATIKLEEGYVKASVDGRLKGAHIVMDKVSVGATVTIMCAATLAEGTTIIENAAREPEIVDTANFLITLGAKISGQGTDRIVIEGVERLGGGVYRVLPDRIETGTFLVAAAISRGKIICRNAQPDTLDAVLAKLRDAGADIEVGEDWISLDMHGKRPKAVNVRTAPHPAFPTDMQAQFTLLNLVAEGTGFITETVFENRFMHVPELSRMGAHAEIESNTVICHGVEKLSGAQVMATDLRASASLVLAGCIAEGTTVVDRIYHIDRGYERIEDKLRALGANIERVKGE

Structure (SMILES)	remaining activity at 100 µM [1] [%]	MurA RA (%) [2] [%]	CatB RA (%) [3] [%]	RA [4] [%]	remaining activity at 100 µM [5] [%]	GSH half-life [6, 8] [h]	Reactivity, Experimental ln(k) vs GSH [7]	lnk ([6]; […])	MAO-A inhibition (experimental) [4]	experimental activity class against MurA [2, 9]	experimental activity class against CatB [3, 9]	GSH half-life ([6]; buffer) [h]
COC(=O)/C=C/C(=O)OC [Compound 25, COC(=O)/C=C/C(=O)OC]	106	50	106	80	50	–	–	–	–	–	–	–
C/C=C/C(=O)OC [Compound 26, C/C=C/C(=O)OC]	97	41	97	68	41	20.8	-3.401	–	–	–	–	–
CCOC(=O)/C=C/c1ccccc1 [Compound 27, CCOC(=O)/C=C/c1ccccc1]	79	92	79	97	92	48.2	-4.242	–	–	–	–	–
C=CC(=O)N(C)C [Compound 29, C=CC(=O)N(C)C]	75	95	75	75	95	127	-5.211	–	–	–	–	–
C=CC(=O)Nc1ccccc1 [Compound 30, C=CC(=O)Nc1ccccc1]	88	78	88	99	78	–	–	–	–	–	–	–
C=CS(=O)(=O)c1ccccc1 [Compound 34, C=CS(=O)(=O)c1ccccc1]	87	12	87	52	12	–	–	1.45	–	–	–	–
O=S(=O)(/C=C/c1ccccc1)c1ccccc1 [Compound 35, O=S(=O)(/C=C/c1ccccc1)c1ccccc1]	77	82	77	87	82	94.3	-4.913	–	–	–	–	–
CCOC(=O)C#Cc1ccccc1 [Compound 36, CCOC(=O)C#Cc1ccccc1]	70	75	70	94	75	4.66	-1.906	–	–	–	–	–
CC#CC(=O)OCC [Compound 37, CC#CC(=O)OCC]	84	82	84	84	82	16.9	-3.194	–	–	–	–	–
CN1C(=O)C=CC1=O [Compound 38, CN1C(=O)C=CC1=O]	91	1	91	5	1	< 0.1	1.936	–	–	–	–	–
O=C1C=CC(=O)N1Cc1ccccc1 [Compound 39, O=C1C=CC(=O)N1Cc1ccccc1]	87	2	87	0	2	< 0.1	1.936	–	active	–	–	–
O=C1C=CC(=O)N1C1CCCCC1 [Compound 40, O=C1C=CC(=O)N1C1CCCCC1]	89	1	89	3	1	< 0.1	1.936	–	–	–	–	–
O=C1C=CC(=O)N1c1ccccc1 [Compound 41, O=C1C=CC(=O)N1c1ccccc1]	82	1	82	1	0.8	< 0.1	1.936	–	–	experimental MurA actives	–	–
CC(C)(C)OC(=O)N1CC=CC1=O [Compound 42, CC(C)(C)OC(=O)N1CC=CC1=O]	85	92	85	47	92	161	-5.449	–	–	–	–	–
O=C1C=CCO1 [Compound 43, O=C1C=CCO1]	99	75	99	99	75	194	-5.634	–	–	–	–	–
O=C(CBr)c1ccc(-c2ccccc2)cc1 [Compound 44, O=C(CBr)c1ccc(-c2ccccc2)cc1]	0.1	0	0	14	0.1	< 0.1	1.936	–	–	–	experimental actives	–
O=C(CBr)c1ccccc1 [Compound 45, O=C(CBr)c1ccccc1]	27	2	27	39	2	–	1.936	–	found to inhibit MAO-A activity	–	–	< 0.1
O=C(CCl)Nc1ccccc1 [Compound 48, O=C(CCl)Nc1ccccc1]	88	110	88	95	110	–	–	–	–	–	–	–
